Laboratory results taken from US8476319B2, “Methods of treating ear infections” (3M Innovative Properties Company, priority 2005, dated 2013).

Key:
[1] = test system: Organ of Corti hair cells; test: Ototoxicity testing in chinchillas (trans bullar injection, Organ of Corti surface preparation); settings: 0.1 cc into middle ear, two injections, 17 days
Source text: Initial screening of selected components for ototoxic effect was preformed using chinchillas. The compounds or compounds plus vehicle were placed in proximity to the round window membrane of the chinchilla and the tissues evaluated for ototoxic insult.
General Test Procedure: Chinchillas were mildly anesthetized using 0.1 cc IM ketamine. The skin overlying the ventral aspect of the left and right bulla were shaved and surgically prepped. An amount (0.1 cubic centimeter (cc)) of the test material was placed in the middle ear near the round window niche using a 1 cc syringe with a 23 guage needle by trans bullar injection. Three days later the procedure was repeated using the same test material in each ear. Fourteen days after the second injection (total survival time=17 days) the animals were sacrificed. The bullae were removed, the cochlea isolated and perfused with fixative through the round window membrane. After standard preparation (fixation and decalcification) the samples were dissected and the Organ of Corti isolated and evaluated for ototoxic insult. The surface preparation analysis of the Organ of Corti is a universally accepted method of evaluating hair cell loss due to ototoxic insult. The chinchilla is the standard test animal used and a 14 day survival time is adequate to screen for gross hair cell disruption due to ototoxic effect. The materials were tested in both a right and left ear but using two different animals.
This served as a positive control.

[2] = Transport through the tympanic membrane, GC of saline recovered from middle ear; format: in vivo, chinchilla; settings: for formulation component detected by GC in saline recovered from the middle ear: Example 2 formulation in outer ear next to tympanic membrane, samples at 15, 30, 60 min
Method: Example 2 formulation was evaluated for transportability across the ear drum (tympanic membrane) and into the middle ear with an animal model test using chinchillas (400 g to 500 g). A cotton plug saturated with Example 2 formulation was placed against the outer ear membrane of a chinchilla. An opening was made into the middle ear through the bulla and 1 mL saline was placed in the middle ear. At 15, 30, and 60 min. the saline was withdrawn and replaced with fresh saline. Tympanometry was completed before and after the test compositions were applied to ensure the tympanic membrane was intact (without perforations). The saline samples were kept at 4° C. until assayed.
GC Analysis: Six samples of saline recovered from the middle ear of a chinchilla were analyzed by GC. They were recovered from both the left and right ears of the test animal at 15, 30, and 60 min after an antibacterial formulation was placed in the outer ear next to the tympanic membrane. The GC analysis detected the formulation components of GML, FINSOLV NT, and benzoic acid.
Standard preparation: A single external standard of GML (Medchem—97%) at 1 mg/mL was prepared in CHCl3. Standards of methyl benzoate and FINSOLV NT were also available. Saline (0.9% NaCl) was prepared in the lab.
Sample Extraction: The six samples were contained in 1.5 mL clear plastic micorcentrifuge tubes. The 30- and 60-min samples were clear while the 15-min samples contained a water insoluble residue (there appeared to be so much antimicrobial composition in the sample collected a separate phase was noted by the analyst). The liquid was vortexed and transferred to separate 10 mL graduated clinical centrifuge tubes and the volume recorded. The sample tubes were rinsed once with approximately 0.5 mL saline vortexed and transferred to the centrifuge tube. The microtubes were rinsed a second time with approximately 0.75 mL chloroform which was also transferred to the clinical centrifuge tube. The chloroform dissolved the residue in the 15 min samples. The liquid level in the centrifuge tubes was brought to 1.7 mL by the addition of saline solution. A sample (4.5 mL) of CHCl3 was then added to the centrifuge tubes using a 5-mL graduated glass pipette. The tubes were then sealed with TEFLON screw cap tops and vortexed for 2 min. They were then centrifuged in an IEC clinical centrifuge until 2 clear phases formed (approximately 5 min). Using Pasture pipettes, the lower (organic) phases were quantitatively transferred to a set of preweighed 7-mlL vials. The extracts were treated with diazomethane (DAM) which formed the methyl esters of acids present, in this case methyl benzoate from benzoic acid present. Extracts were placed on a warm heating block and taken to dryness under a stream of nitrogen. Once constant weight was obtained, the samples were re-weighed and the net weight was recorded. Using a graduated pipette enough CHCl3 was added back to the 15 min extracts to achieve a concentration of 1 mg/mL in GML. The 30 and 60 min samples had much less weight so an arbitrary ½ mL of CHCl3 was added. An aliquot of each sample was then transferred to an autosampler vial and analyzed by GC using the conditions below. Gas Chromatography: • Instrument—HP 5890 • Column—15 meter STABILWAX-DA, 0.25 μm film 0.25 mm ID • Carrier—He, 2.07×10^5 N/m^2(30 psi) constant pressure • Injection—2 μL split 1:60, injector temp 250° C. • Liner—Restek SILTEK deactivated liner with SILTEK • deactivated glass wool (catalog number 22406-213.5) • Program—110° C. initial, 7° C./min to 250°, hold 10 minutes • Detector—FID at 250° C.
The total recovered GML was determined by direct GC analysis of the fractions. […] As indicated above a standard of methyl benzoate was substituted for benzoic acid. The components have been identified and the FINSOLV TN contributes most of the peak area. […]

[3] = recovered from middle ear saline 15 minutes after Example 2 formulation placed against tympanic membrane
[4] = recovered from middle ear saline 30 minutes after Example 2 formulation placed against tympanic membrane
[5] = total of 15, 30 and 60 minute samples, Example 2 formulation

CCCCCCCCCCCCCC(=O)OC(C)C [IPM, Isopropyl myristate]
Ototoxicity Result ([1]; 100%): Toxic (toxic (rating 2-4))

CCCCC(CC)COC(=O)CC(C(=O)OCC(CC)CCCC)S(=O)(=O)[O-].[Na+] (stereo not drawn) [GEMTEX (DOSS), Dioctylsulfosuccinate, sodium salt]
Ototoxicity Result ([1]; 1% / 1.0% in water): Toxic (toxic (rating 2-4))

CCCCCCCCCCCC(=O)OCC(O)CO (stereo not drawn) [GML, Glycerol monolaurate]
formulation component detected by GC in saline recovered from the middle ear [2]: detected
Left ear GML [2, 3]: 10.3 mg
Right ear GML [2, 3]: 2.35 mg
Left ear GML [2, 4]: 0.03 mg
Right ear GML [2, 4]: 0.98 mg
Left ear GML (mg), Total [2, 5]: 10.33 mg
Right ear GML (mg), Total [2, 5]: 3.33 mg
Ototoxicity Result ([1]; 0.5% in water): No toxicity (no toxicity (rating 1))
Ototoxicity Result ([1]; 1% / 1.0% in water): No toxicity (no toxicity (rating 1))
Ototoxicity Result ([1]; 1% in IPM): Toxic (toxic (rating 2-4))

Propylene glycol monocaprylate [PG monocaprylate]
Ototoxicity Result ([1]; 0.25% in water): No toxicity (no toxicity (rating 1))
Ototoxicity Result ([1]; 1% / 1.0% in water): No toxicity (no toxicity (rating 1))

O=C(O)c1ccccc1 [benzoic acid, Benzoic acid]
formulation component detected by GC in saline recovered from the middle ear [2]: detected
